Measurements reported in PubChem BioAssay AID1963963 (Molecular Pharmacology Branch, DTP, NCI, 2024).

System: 958667-338-R-J2-PDC tumor spheroids viability
Experiment: Anticancer human tumor 958667-338-R-J2-PDC patient-derived colon adenocarcinoma cell line growth inhibition [PI3K]
Details: spheroids with HUVEC and MSC; for IC50: curve of first compound; for viability, T/C: stronger effect = lower value; active = viability on the fitted dose curve at most 10% of control; inactive = the rest
Description: Combinatorial screen of targeted agents with the PI3K inhibitors inavolisib, alpelisib, duvelisib, and copanlisib in multi-cell type tumor spheroids
A high-throughput screen of multi-cell type tumor spheroids was designed to identify active combinations of targeted small molecules and PI3K pathway inhibitors. Complex spheroids include a stromal component modeled by human endothelial cells (HUVEC) and fibroblasts modeled by human mesenchymal stem cells (MSCs). The concentration ranges selected for each drug and investigational agent were based upon clinically achievable concentrations if the clinical Cmax of the agent was known.
Compounds. The drugs and investigational agents: inavolisib (NSC800729), alpelisib (NSC765974), duvelisib (NSC772469), copanlisib (NSC816437), ipatasertib (NSC767898), afuresertib (NSC778305), talazoparib (NSC767125), sapanisertib (NSC764658), selumetinib (NSC741078), tovorafenib (DAY101, NSC766906), vemurafenib (NSC761431), ravoxertinib (NSC781343), sotorasib (NSC818433), MRTX1133 (NSC 836407), abemaciclib (NSC 768073), palbociclib (NSC758247), venetoclax (NSC 766270), SY5609 (NSC837396), enzalutamide (NSC755605), and darolutamide (NSC825331), were obtained from the National Cancer Institute (NCI) Developmental Therapeutics Program Chemical Repository. The FDA-approved anticancer drug set is available from the NCI Developmental Therapeutics Program. […] The stock solutions were prepared in dimethyl sulfoxide (DMSO, Sigma-Aldrich, St. Louis, MO, cat. D2650) at 800-fold the tested concentration and stored at -70 degrees C prior to their use. All drugs and investigational agents were tested over a range starting from a high concentration at or near the clinical Cmax and decreasing in half-log increments. If the clinical Cmax for an agent had not been determined, the highest concentration tested was 10 microM.
Cell Culture. All cells were maintained in an incubator at 37 degrees C and 5% CO2 with 95% humidity. The PDC lines were cultured according to standard operating procedures established by the NCI PDMR (https://pdmr.cancer.gov/sops/default.htm). All PDCs were thawed and cultured in Matrigel-coated flasks prepared with a working solution of 1X Ham's F-12 nutrient mix, without supplementation (Invitrogen, Waltham, MA, cat. 11765054), 100 U/mL penicillin-streptomycin (Invitrogen, cat. 15140122), and 2.5% Matrigel (Corning Inc., Corning, NY, cat. 354248) for the first three passages. The 354836-022-R-J1-PDC, 475296-252-R-J1-PDC, and 997726-040-R-J2-PDC lines were cultured in 6A media, which includes advanced DMEM/F-12 (Thermo Fisher Scientific, cat. 12634028), 10 mM HEPES (Thermo Fisher Scientific, cat. 15630080), 1X GlutaMAX supplement (Thermo Fisher Scientific, cat. 35050061), 0.1 mg/mL primocin (InvivoGen, San Diego, CA, cat. ant-pm-2), 10% defined fetal bovine serum, heat inactivated (HyClone Laboratories Inc., Logan, UT, cat. SH30070.03HI), 50% L-WRN conditioned media (ATCC, cat. CRL-3276), 1.25 mM N-Acetyl-L-cysteine (Sigma-Aldrich, cat. A9165), 10 mM nicotinamide (Sigma-Aldrich, cat. N0636), 1X B-27 supplement (Thermo Fisher Scientific, cat. 17504044), 1X N-2 supplement (Thermo Fisher Scientific, cat. 17502048), and 10 microM Y-27632 dihydrochloride (Tocris Bioscience, Bristol, United Kingdom, cat. 1254). The 624824-186-R-J2-PDC line was cultured in 6C/Colon 1B media, which includes all 6A media components plus 50 ng/mL human EGF recombinant protein (Thermo Fisher Scientific, cat. PHG0311). […]

[1] = second compound 0.00316 µM, first compound 0.0316 µM
[2] = second compound 0.00316 µM, first compound 0.1 µM
[3] = second compound 0.01 µM, first compound 0.0316 µM
[4] = second compound 0.01 µM, first compound 0.1 µM
[5] = second compound 0.0316 µM, first compound 0.0316 µM
[6] = second compound 0.0316 µM, first compound 0.1 µM
[7] = second compound 0.1 µM, first compound 0.0316 µM
[8] = second compound 0.1 µM, first compound 0.1 µM
[9] = second compound 0.316 µM, first compound 0.0316 µM
[10] = second compound 0.316 µM, first compound 0.1 µM
[11] = second compound 1 µM, first compound 0.0316 µM
[12] = second compound 1 µM, first compound 0.1 µM
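Note: spheroids exposed to compounds for seven days before readout.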

CC(=O)c1c(C)c2cnc(Nc3ccc(N4CCNCC4)cn3)nc2n(C2CCCC2)c1=O + CC(Nc1ccc2c(c1)OCCn1cc(N3C(=O)OCC3C(F)F)nc1-2)C(N)=O
> 100 nM: IC50 (second compound 0.00316 µM) | IC50 (second compound 0.01 µM) | IC50 (second compound 0.0316 µM) | IC50 (second compound 0.1 µM) | IC50 (second compound 0.316 µM)
18 nM: IC50 (second compound 1 µM)
inactive: viability, T/C (second compound 0.00316 µM, first compound 0.000316 µM) 96.6% | viability, T/C (second compound 0.00316 µM, first compound 0.001 µM) 107% | viability, T/C (second compound 0.00316 µM, first compound 0.00316 µM) 101% | viability, T/C (second compound 0.00316 µM, first compound 0.01 µM) 104% | viability, T/C [1] 99.1% | viability, T/C [2] 84.3% | viability, T/C (second compound 0.01 µM, first compound 0.000316 µM) 107% | viability, T/C (second compound 0.01 µM, first compound 0.001 µM) 95.7% | viability, T/C (second compound 0.01 µM, first compound 0.00316 µM) 105% | viability, T/C (second compound 0.01 µM, first compound 0.01 µM) 102% | viability, T/C [3] 107% | viability, T/C [4] 83.8% | viability, T/C (second compound 0.0316 µM, first compound 0.000316 µM) 97.3% | viability, T/C (second compound 0.0316 µM, first compound 0.001 µM) 73.8% | viability, T/C (second compound 0.0316 µM, first compound 0.00316 µM) 78.3% | viability, T/C (second compound 0.0316 µM, first compound 0.01 µM) 90.2% | viability, T/C [5] 98% | viability, T/C [6] 85.3% | viability, T/C (second compound 0.1 µM, first compound 0.000316 µM) 78.2% | viability, T/C (second compound 0.1 µM, first compound 0.001 µM) 87.4% | viability, T/C (second compound 0.1 µM, first compound 0.00316 µM) 89.2% | viability, T/C (second compound 0.1 µM, first compound 0.01 µM) 75.2% | viability, T/C [7] 92.3% | viability, T/C [8] 58.2% | viability, T/C (second compound 0.316 µM, first compound 0.000316 µM) 61.9% | viability, T/C (second compound 0.316 µM, first compound 0.001 µM) 73% | viability, T/C (second compound 0.316 µM, first compound 0.00316 µM) 62.8% | viability, T/C (second compound 0.316 µM, first compound 0.01 µM) 65.9% | viability, T/C [9] 56.9% | viability, T/C [10] 67.4% | viability, T/C (second compound 1 µM, first compound 0.000316 µM) 64.5% | viability, T/C (second compound 1 µM, first compound 0.001 µM) 62.8% | viability, T/C (second compound 1 µM, first compound 0.00316 µM) 47.5% | viability, T/C (second compound 1 µM, first compound 0.01 µM) 53.2% | viability, T/C [11] 56.6% | viability, T/C [12] 37%

CNC(=O)c1ccc(N2C(=S)N(c3ccc(C#N)c(C(F)(F)F)c3)C(=O)C2(C)C)cc1F + CC(Nc1ccc2c(c1)OCCn1cc(N3C(=O)OCC3C(F)F)nc1-2)C(N)=O
> 10000 nM: IC50 (second compound 0.00316 µM) | IC50 (second compound 0.01 µM) | IC50 (second compound 0.0316 µM) | IC50 (second compound 0.1 µM) | IC50 (second compound 0.316 µM) | IC50 (second compound 1 µM)
inactive: viability, T/C [1] 96.3% | viability, T/C [2] 103% | viability, T/C (second compound 0.00316 µM, first compound 0.316 µM) 93.4% | viability, T/C (second compound 0.00316 µM, first compound 1 µM) 84.3% | viability, T/C (second compound 0.00316 µM, first compound 3.16 µM) 97.1% | viability, T/C (second compound 0.00316 µM, first compound 10 µM) 102% | viability, T/C [3] 115% | viability, T/C [4] 102% | viability, T/C (second compound 0.01 µM, first compound 0.316 µM) 80.6% | viability, T/C (second compound 0.01 µM, first compound 1 µM) 97.6% | viability, T/C (second compound 0.01 µM, first compound 3.16 µM) 89.9% | viability, T/C (second compound 0.01 µM, first compound 10 µM) 95.7% | viability, T/C [5] 104% | viability, T/C [6] 98.1% | viability, T/C (second compound 0.0316 µM, first compound 0.316 µM) 93.6% | viability, T/C (second compound 0.0316 µM, first compound 1 µM) 107% | viability, T/C (second compound 0.0316 µM, first compound 3.16 µM) 104% | viability, T/C (second compound 0.0316 µM, first compound 10 µM) 94.6% | viability, T/C [7] 84.5% | viability, T/C [8] 57.5% | viability, T/C (second compound 0.1 µM, first compound 0.316 µM) 90% | viability, T/C (second compound 0.1 µM, first compound 1 µM) 79.6% | viability, T/C (second compound 0.1 µM, first compound 3.16 µM) 85.1% | viability, T/C (second compound 0.1 µM, first compound 10 µM) 83.5% | viability, T/C [9] 75.3% | viability, T/C [10] 73.5% | viability, T/C (second compound 0.316 µM, first compound 0.316 µM) 73.9% | viability, T/C (second compound 0.316 µM, first compound 1 µM) 72.5% | viability, T/C (second compound 0.316 µM, first compound 3.16 µM) 63% | viability, T/C (second compound 0.316 µM, first compound 10 µM) 68.4% | viability, T/C [11] 67% | viability, T/C [12] 64.3% | viability, T/C (second compound 1 µM, first compound 0.316 µM) 64.2% | viability, T/C (second compound 1 µM, first compound 1 µM) 62% | viability, T/C (second compound 1 µM, first compound 3.16 µM) 69.4% | viability, T/C (second compound 1 µM, first compound 10 µM) 50.6%
